Patent publication US3962282A, “Juvenile hormone mimics” (priority 1974, dated 1976)

How the values were obtained:
Assay type in all cases: in vivo
Tenebrio molitor pupae = assay: topical application to Tenebrio molitor pupae, maturation inhibition
Excerpt: (§1) The compounds were applied in acetone solution at concentrations of 10 percent, 1 percent and 0.5 percent. One microliter of the acetone solution was applied to each test specimen. Ten test specimens were employed for each insect at each concentration and compared to ten acetone controls and ten zero controls. Approximately eight to ten days were required before results could be ascertained.
(§2) The insect species used in the test were Tenebrio molitor pupae; milkweed bug, fourth nymphal stage; wax moth, fifth larval stage; and Mexican bean beetle, fourth larval stage. At the completion of the test, each specimen was examined for the degree of juvenile and adult characteristics. The milkweed bug, wax moth, and Mexican bean beetle were assigned a numerical rating of 0 to 3 with 0 indicating no effect and 3 indicating the maximum effect or least adult development. Because of differences in morphology the Tenebrio rating scale was 0 to 4. In all cases a rating of 2 or higher means that the insect is incapable of reproduction. The number of specimens in each rating classification are given. In any test were the total of specimens reported is less than 10, those unreported died in some metamorphic stage. Such deaths indicate control, since the dead insects are not capable of reproducing.

milkweed bug = assay: topical application to milkweed bug, fourth nymphal stage, maturation inhibition
Excerpt: as §1, §2

Mexican bean beetle = assay: topical application to Mexican bean beetle, fourth larval stage, maturation inhibition
Excerpt: as §1, §2

[1] = 10% in acetone, 1 microliter topical, rating scale 0 (no effect) to 3 (maximum)

For `CCCCCCCCCc1ccc2c(c1)OCO2` [5-(n-NONYL)-1,3-BENZODIOXOLE], the “number of specimens in rating 0” value (Tenebrio molitor pupae; 0.5%, rating scale 0-4) was 6 specimens, the “number of specimens in rating 1” value (Tenebrio molitor pupae; 0.5%, rating scale 0-4) was 1 specimens and the “number of specimens in rating 2” value (Tenebrio molitor pupae; 0.5%, rating scale 0-4) was 3 specimens. The “number of specimens in rating 0” value (Tenebrio molitor pupae; 1%, rating scale 0-4) was 2 specimens, the “number of specimens in rating 2” value (Tenebrio molitor pupae; 1%, rating scale 0-4) was 5 specimens and the “number of specimens in rating 3” value (Tenebrio molitor pupae; 1%, rating scale 0-4) was 1 specimens. For the same compound, the “number of specimens in rating 4” value (Tenebrio molitor pupae; 1%, rating scale 0-4) was 1 specimens, the “number of specimens in rating 3” value (Tenebrio molitor pupae; 10%, rating scale 0-4) was 3 specimens and the “number of specimens in rating 4” value (Tenebrio molitor pupae; 10%, rating scale 0-4) was 7 specimens. For the same compound, the “number of specimens in rating 0” value (milkweed bug; 0.5%, rating scale 0-3) was 8 specimens, the “number of specimens in rating 1” value (milkweed bug; 0.5%, rating scale 0-3) was 1 specimens and the “number of specimens in rating 0” value (milkweed bug; 1%, rating scale 0-3) was 3 specimens. For the same compound, the “number of specimens in rating 1” value (milkweed bug; 1%, rating scale 0-3) was 1 specimens, the “number of specimens in rating 2” value (milkweed bug; 1%, rating scale 0-3) was 1 specimens and the “number of specimens in rating 3” value (milkweed bug; 1%, rating scale 0-3) was 4 specimens. The “number of specimens in rating 0” value (milkweed bug; [1]) was 4 specimens, the “number of specimens in rating 2” value (milkweed bug; 10%, rating scale 0-3) was 1 specimens and the “number of specimens in rating 3” value (milkweed bug; 10%, rating scale 0-3) was 5 specimens. The “number of specimens in rating 0” value (Mexican bean beetle; 0.5%, rating scale 0-3) was 9 specimens, the “number of specimens in rating 0” value (Mexican bean beetle; 1%, rating scale 0-3) was 10 specimens and the “number of specimens in rating 3” value (Mexican bean beetle; 10%, rating scale 0-3) was 8 specimens.
`CC(C)=CCC/C(C)=C/CCc1cccs1` [trans-9-(2-THIENYL)-2,6-DIMETHYL-2,6-NONADIENE] was tested, and the “number of specimens in rating 0” value (Tenebrio molitor pupae; 0.5%, rating scale 0-4) was 8 specimens, the “number of specimens in rating 1” value (Tenebrio molitor pupae; 0.5%, rating scale 0-4) was 2 specimens and the “number of specimens in rating 0” value (Tenebrio molitor pupae; 1%, rating scale 0-4) was 10 specimens. For the same compound, the “number of specimens in rating 1” value (Tenebrio molitor pupae; 10%, rating scale 0-4) was 1 specimens, the “number of specimens in rating 4” value (Tenebrio molitor pupae; 10%, rating scale 0-4) was 9 specimens and the “number of specimens in rating 0” value (milkweed bug; 0.5%, rating scale 0-3) was 10 specimens. For the same compound, the “number of specimens in rating 0” value (milkweed bug; 1%, rating scale 0-3) was 10 specimens, the “number of specimens in rating 0” value (milkweed bug; [1]) was 3 specimens and the “number of specimens in rating 3” value (milkweed bug; 10%, rating scale 0-3) was 4 specimens. For the same compound, the “number of specimens in rating 0” value (Mexican bean beetle; 0.5%, rating scale 0-3) was 9 specimens, the “number of specimens in rating 1” value (Mexican bean beetle; 0.5%, rating scale 0-3) was 1 specimens and the “number of specimens in rating 0” value (Mexican bean beetle; 1%, rating scale 0-3) was 5 specimens. The “number of specimens in rating 1” value (Mexican bean beetle; 1%, rating scale 0-3) was 5 specimens and the “number of specimens in rating 3” value (Mexican bean beetle; 10%, rating scale 0-3) was 10 specimens.
In the case of `CCC(C)=CCCC(C)=CCCc1ccc2c(c1)OCO2` [3,7-DIMETHYL-10-(3,4-METHYLENEDIOXYPHENYL)-3,7-DECADIENE], the “number of specimens in rating 4” value (Tenebrio molitor pupae; 0.5%, rating scale 0-4) is reported as 10 specimens, the “number of specimens in rating 4” value (Tenebrio molitor pupae; 1%, rating scale 0-4) is reported as 10 specimens and the “number of specimens in rating 4” value (Tenebrio molitor pupae; 10%, rating scale 0-4) is reported as 10 specimens. The “number of specimens in rating 1” value (milkweed bug; 0.5%, rating scale 0-3) was 1 specimens, the “number of specimens in rating 3” value (milkweed bug; 0.5%, rating scale 0-3) was 8 specimens and the “number of specimens in rating 3” value (milkweed bug; 1%, rating scale 0-3) was 9 specimens. The “number of specimens in rating 3” value (milkweed bug; 10%, rating scale 0-3) was 5 specimens.
With `CC(C)=CCC/C(C)=C/CCc1cccc(Br)c1` [trans-9-(3-BROMOPHENYL)-2,6-DIMETHYL-2,6-NONADIENE] the “number of specimens in rating 0” value (Tenebrio molitor pupae; 0.5%, rating scale 0-4) was 8 specimens, the “number of specimens in rating 1” value (Tenebrio molitor pupae; 0.5%, rating scale 0-4) was 1 specimens and the “number of specimens in rating 2” value (Tenebrio molitor pupae; 0.5%, rating scale 0-4) was 1 specimens. The “number of specimens in rating 0” value (Tenebrio molitor pupae; 1%, rating scale 0-4) was 8 specimens, the “number of specimens in rating 1” value (Tenebrio molitor pupae; 1%, rating scale 0-4) was 2 specimens and the “number of specimens in rating 0” value (Tenebrio molitor pupae; 10% in acetone, 1 microliter topical, rating scale 0 (no effect) to 4 (maximum)) was 8 specimens. The “number of specimens in rating 1” value (Tenebrio molitor pupae; 10%, rating scale 0-4) was 2 specimens, the “number of specimens in rating 3” value (milkweed bug; 0.5%, rating scale 0-3) was 10 specimens and the “number of specimens in rating 3” value (milkweed bug; 1%, rating scale 0-3) was 10 specimens. For the same compound, the “number of specimens in rating 3” value (milkweed bug; 10%, rating scale 0-3) was 10 specimens, the “number of specimens in rating 0” value (Mexican bean beetle; 0.5%, rating scale 0-3) was 8 specimens and the “number of specimens in rating 1” value (Mexican bean beetle; 0.5%, rating scale 0-3) was 1 specimens. The “number of specimens in rating 3” value (Mexican bean beetle; 0.5%, rating scale 0-3) was 1 specimens, the “number of specimens in rating 0” value (Mexican bean beetle; 1%, rating scale 0-3) was 7 specimens and the “number of specimens in rating 1” value (Mexican bean beetle; 1%, rating scale 0-3) was 1 specimens. For the same compound, the “number of specimens in rating 3” value (Mexican bean beetle; 1%, rating scale 0-3) was 2 specimens, the “number of specimens in rating 0” value (Mexican bean beetle; [1]) was 9 specimens and the “number of specimens in rating 3” value (Mexican bean beetle; 10%, rating scale 0-3) was 1 specimens.
For `CC(C)CCCC(C)CCCc1ccc2c(c1)OCO2` (stereo not shown) [9-(3,4-methylenedioxyphenyl)-2,6-dimethylnonane], the “number of specimens in rating 3” value (Tenebrio molitor pupae; 0.5%, rating scale 0-4) was 3 specimens, the “number of specimens in rating 4” value (Tenebrio molitor pupae; 0.5%, rating scale 0-4) was 7 specimens and the “number of specimens in rating 4” value (Tenebrio molitor pupae; 1%, rating scale 0-4) was 10 specimens. For the same compound, the “number of specimens in rating 4” value (Tenebrio molitor pupae; 10%, rating scale 0-4) was 10 specimens, the “number of specimens in rating 3” value (milkweed bug; 0.5%, rating scale 0-3) was 8 specimens and the “number of specimens in rating 3” value (milkweed bug; 1%, rating scale 0-3) was 10 specimens. For the same compound, the “number of specimens in rating 3” value (milkweed bug; 10%, rating scale 0-3) was 8 specimens.
